Experimental data taken from patent US8999954B2, “Inhibitors of polysialic acid de-N-acetylase and methods for using the same” (Childern's Hospital & Research Center at Oakland, priority 2007, dated 2015).
pEC50: −log10 of the molar value.

Assays:
[1] = test system: Jurkat T-cell leukemia cells; assay: Cell viability assay (Guava ViaCount, flow cytometry); type: cell-based, human; details: for pEC50: Homo sapiens, read-out: concentration for half-maximal decrease in viability; for pEC50 / viability of Jurkat cells: 24 hrs incubation; for apoptosis and cell death in Jurkat cells / cell viability of Jurkat cells: 24 hrs, concentration of 10 mM (FIG. 7); for viability of Jurkat cells: concentration in cell culture media varied (FIG. 3, 4, 9)
Description: (§1) Human melanoma SK-MEL 28, neuroblastoma CHP-134, and T-cell leukemia Jurkat cell lines were obtained from ATCC (Manassas, Va.). All cell lines were grown in RPMI 1640 media (UCSF Cell Culture Facility, San Francisco, Calif.), supplemented with 10% heat-inactivated fetal bovine serum (Gemini Bio-Products, West Sacramento, Calif.), non-essential amino acids, 100 units/ml penicillin/streptomycin, 110 μg/ml sodium pyruvate, and 2 mM glutamine (UCSF Cell Culture Facility). Jurkat cells were grown to a concentration of not more than 10^6 cells/ml and adherent SK-MEL 28 and CHP-134 cells to a concentration of not more than 5×10^4 cells/cm^2.
(§2) The effect of inhibitors of PSA de-N-acetylase on the viability of human tumor cell lines in culture was measured using a cell viability assay. Cells were incubated with N-acyl or methanesulfonyl hexosamine derivatives for 24 hours. Jurkat cells were incubated at a concentration of 2×10^5 cells/ml in round-bottom 96-well plates (Falcon), 200 μl/well. Adherent cells were incubated at a concentration of 1×10^5 cells/ml in flat-bottom 96-well plates (Nunc). Plates were then spun at 1,000×g for 5 minutes. SK-MEL 28 cells were release from the plate using a trypsin/EDTA solution (UCSF Cell Culture Facility). CHP-134 cells were released using CDR (Guava Technologies). All cells were resuspended in Guava ViaCount reagent and read on a Guava EasyCyte flow cytometer, using the Guava ViaCount assay (all from Guava Technologies).

[2] = test system: CHP-134 neuroblastoma cells; assay: as above; type: cell-based, human; details: for pEC50: Homo sapiens, 24 hrs incubation, read-out: concentration for half-maximal decrease in viability; for pEC50 / induction of apoptosis: CHP-134 cells
Description: as §1, §2

SK-MEL 28 melanoma cells [3] = assay: as above; type: cell-based, human
Description: as §1, §2

[4] = test system: Jurkat T-cell leukemia cells; assay: as above; type: cell-based, human; details: 96 hrs incubation, increasing concentrations (FIG. 8)
[5] = molecular target: T1, membrane transporters for N-acetyl neuraminic acid (Homo sapiens, UniProt Q9NRA2); details: lysosomal membrane transporter; Essentials of Glycobiology 1999; read-out: Michaelis constant, Km, for forming a substrate/transporter complex; cited from earlier work
T1 sequence (Q9NRA2 1-495): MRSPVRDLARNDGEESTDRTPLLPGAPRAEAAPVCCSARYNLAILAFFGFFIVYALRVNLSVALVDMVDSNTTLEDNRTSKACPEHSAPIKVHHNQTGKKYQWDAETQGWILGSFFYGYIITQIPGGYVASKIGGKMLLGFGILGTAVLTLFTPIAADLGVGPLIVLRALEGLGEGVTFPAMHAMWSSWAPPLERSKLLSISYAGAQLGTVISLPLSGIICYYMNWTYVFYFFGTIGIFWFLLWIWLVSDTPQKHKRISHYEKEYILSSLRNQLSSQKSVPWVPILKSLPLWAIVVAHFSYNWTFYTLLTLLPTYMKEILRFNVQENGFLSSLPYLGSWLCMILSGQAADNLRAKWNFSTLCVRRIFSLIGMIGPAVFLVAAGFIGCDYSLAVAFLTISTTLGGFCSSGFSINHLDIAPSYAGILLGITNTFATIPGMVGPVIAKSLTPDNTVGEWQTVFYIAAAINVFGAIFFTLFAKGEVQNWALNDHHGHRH

[6] = test system: Jurkat T-cell leukemia cells; assay: Cell surface expression of N-propionyl PSA (SEAM 18 binding, flow cytometry); type: cell-based, human; details: 10 mM supplement in media, 24 hours (FIG. 2)
Description: (§3) CHP-134, SK-MEL 28 and Jurkat cells were cultured in media containing N-propionyl galactosamine, N-propionyl mannosamine, or N-acetyl mannosamine (10 mM) or no supplement for 24 hours. To measure mAb binding, the cells were released from the plate, pelleted by centrifugation, washed with PBS, and fixed with 1% formaldehyde in PBS. All procedures were performed on ice. Cells were blocked with PBS containing 3% goat serum, then were incubated overnight at 4° C. with one of the following primary antibodies (˜1 μg/ml), diluted in 3% goat serum: irrelevant isotype control mAbs IgG2a or IgG2b (Southern Biotech), SEAM 3 (Granoff et al. J. Immunol. 1998, 160:5028), or SEAM 18 (Granoff et al. J. Immunol. 1998, 160:5028). Cells were then washed and labeled with goat-anti-mouse FITC (1:1000, Jackson Immunoresearch, West Grove, Pa.). Fluorescence was measured on a Guava EasyCyte flow cytometer, using the Guava ExpressPlus assay (Guava Technologies) and the results are expressed as the percent of cells that are positive for mAb binding.

[7] = test system: CHP-134 neuroblastoma cells; assay: as above; type: cell-based, human; details: CHP-134, 10 mM supplement in media, 24 hours (FIG. 2)
Description: as §3

SK-MEL 28 melanoma cells [8] = assay: as above; type: cell-based, human; details: SK-MEL 28, 10 mM supplement in media, 24 hours (FIG. 2)
Description: as §3

[9] = 96 hrs incubation, increasing concentrations (FIG. 8)
[10] = 24 hours, concentration-dependent (FIG. 4)

With `C=CC(=O)N[C@H]1C(O)O[C@H](CO)[C@H](O)[C@@H]1O` (some centres unmarked) [GalNAcryl, N-Acryl Galactosamine] as the molecule, how does the pEC50 ([1]; Jurkat cells) read?
Its pEC50 is 2.52.

And the pEC50 [2]?
The pEC50 was 2.52.

With `CS(=O)(=O)N[C@H]1C(O)O[C@H](CO)[C@H](O)[C@@H]1O` (some centres unmarked) [GalNMeSul, N-Methyanesulfonyl Galactosamine] as the molecule, how does the “apoptosis and cell death in Jurkat cells” value [1] read?
Its value is “inducing apoptosis and cell death”.

And the “cell viability of Jurkat cells” value [1]?
The value was “decrease cell viability”.

And the induction of apoptosis ([1]; Jurkat cells)?
Its induction of apoptosis is “induce apoptosis”.

What about the “cell viability of CHP-134 cells” value [2, 9] of the same molecule?
The value was “reduced”.

What about the induction of apoptosis [2] of the same molecule?
Its induction of apoptosis is “induce apoptosis”.

And the “cell viability of SK-MEL 28 cells” value (SK-MEL 28 melanoma cells [3]; [9])?
The value was “reduced”.

What about the induction of apoptosis (SK-MEL 28 melanoma cells [3]; SK-MEL 28 cells) of the same molecule?
Its induction of apoptosis is “induce apoptosis”.

What about the “cell viability of Jurkat cells” value [4] of the same molecule?
The value was “reduced”.

What does the source list for `O=C(CCl)N[C@@H]1C(O)O[C@H](CO)[C@@H](O)[C@@H]1O` (some centres unmarked) [ManNClAc, N-Chloroacetyl Mannosamine]?
pEC50 ([1]; Jurkat cells): ~3.00; pEC50 [2]: ~3.00; pEC50 (SK-MEL 28 melanoma cells [3]; Homo sapiens, SK-MEL 28 cells, 24 hrs incubation, read-out: concentration for half-maximal decrease in viability): ~2.10

With `CS(=O)(=O)N[C@@H]1C(O)O[C@H](CO)[C@@H](O)[C@@H]1O` (some centres unmarked) [ManNMeSul, N-Methyanesulfonyl Mannosamine] as the molecule, how does the “apoptosis and cell death in Jurkat cells” value [1] read?
Its value is “inducing apoptosis and cell death”.

And the “cell viability of Jurkat cells” value [1]?
The value was “decrease cell viability”.

And the induction of apoptosis ([1]; Jurkat cells)?
The induction of apoptosis was “induce apoptosis”.

What about the “cell viability of CHP-134 cells” value [2, 9] of the same molecule?
The value was “reduced”.

And the induction of apoptosis [2]?
The induction of apoptosis was “induce apoptosis”.

What about the “cell viability of SK-MEL 28 cells” value (SK-MEL 28 melanoma cells [3]; [9]) of the same molecule?
The value was “reduced”.

What about the induction of apoptosis (SK-MEL 28 melanoma cells [3]; SK-MEL 28 cells) of the same molecule?
Its induction of apoptosis is “induce apoptosis”.

What about the “cell viability of Jurkat cells” value [4] of the same molecule?
The value was “reduced”.

For `CC(=O)N[C@H]1[C@H]([C@H](O)[C@H](O)CO)OC(O)(C(=O)O)C[C@@H]1O` (some centres unmarked) [N-acetyl neuraminic acid], which Km [5] is on record?
Its Km is about 500 µM.

Which “apoptosis and cell death of Jurkat cells” value ([1]; 24 hours, four concentrations (FIG. 3)) does the source give for `C=CC(=O)N[C@@H]1C(O)O[C@H](CO)[C@@H](O)[C@@H]1O` (some centres unmarked) [N-acryl mannosamine, N-Acryl Mannosamine] here?
The value was “inducing apoptosis and cell death”.

And the “viability of Jurkat cells” value [1]?
The value was “reduces the viability”.

And the “sensitivity of Jurkat cells to killing relative to the other cell lines” value ([1]; Jurkat vs CHP-134 and SK-MEL 28 (FIG. 4))?
The value was “approximately 10 fold”.

What about the “cell viability of CHP-134 cells” value [2, 10] of the same molecule?
Its value is “reducing the cell viability”.

And the “cell viability of SK-MEL 28 cells” value (SK-MEL 28 melanoma cells [3]; [10])?
Its value is “reducing the cell viability”.

Which “percentage of cells positive for SEAM 18 binding” value (shortened to “percentage of cells positive”) [6] does the source give for `CCC(=O)N[C@H]1C(O)O[C@H](CO)[C@H](O)[C@@H]1O` (some centres unmarked) [N-propionyl galactosamine] here?
Its value is “increases”.

And the “percentage of cells positive” value [7]?
Its value is “increases”.

What about the “percentage of cells positive” value (SK-MEL 28 melanoma cells [8]) of the same molecule?
The value was “increases”.

For `CCC(=O)N[C@@H]1C(O)O[C@H](CO)[C@@H](O)[C@@H]1O` (some centres unmarked) [N-propionyl mannosamine], which “percentage of cells positive” value [6] is on record?
The value was “increases”.

And the “percentage of cells positive” value [7]?
Its value is “increases”.

And the “percentage of cells positive” value (SK-MEL 28 melanoma cells [8])?
The value was “increases”.

Which results are given for “Poly alpha (2→8) N-Acryl Neuraminic Acid [N-acryl PSA]”?
viability of Jurkat cells [1]: reduced viability; concentration required to induce cell death compared with N-acryl mannosamine ([1]; Jurkat cells, 24 hrs (FIG. 9)): higher
